Measurements taken from patent US7087394B2, “Methods and compositions for treating and diagnosing diabetes and related diseases involving beta-TRP” (Metabolex, Inc., priority 2003, dated 2006).
“Also recorded” adds a separate entry of the source.

Assays:
[1] = test system: control (A1-5) CHO cells; assay: Membrane potential (MP) assay in control CHO cells (A1-5); assay type: cell-based, Chinese hamster; conditions: control CHO line (A1-5)
Method: (§1) Control and βTRP-CHO cells were plated in 96-well plates 2-d before the assay. [Ca^2+]i and membrane potential (MP) responses to ATP (30 μM added at 20 sec) were measured with FLEXStation® and correspondent dyes from Molecular Devices (Sunnyvale, Calif.).
(§2) The following protocol is optimized for the measurement of membrane potential (MP) in 96-well format using Molecular Devices' Membrane Potential Dye (Cat #R-8034) on the FLEXStation (Molecular Devices). It is expected to be applicable or adaptable to the 384-well format assay with the FLIPR^384 system.
A CHO-K1 based stable cell line expressing βTRP (designated “Line A2-18” herein) is used for βTRP high throughput screening according to the follow protocol: • 1. Seed A2–18 βTrp-CHO cell and the control line (A1-5) to 96-well plates. • 2. Grow the cells for 24–48 h in DMEM medium to 85–95% confluency. • 3. Prepare following reagents immediately before the assay: • i. Assay buffer: dilute Component B of the FLIPR® assay kit and adjust pH to 7.4 with 1 N NaOH. No probenecid was needed. • ii. MP dye: suspend a vial of Component A of the FLIPR® assay kit with 10 ml of the assay buffer. • iii. Compound solutions: dilute DMSO stocks of the testing compounds to a 5× solution with the assay buffer. Raise Ca^2+ concentration in the compound solutions to 12.5 mM with 1 M CaCl2. • 4. Carefully remove the culture medium from all wells. • 5. Add 50 μl assay buffer and 50 μl MP dye. • 6. Incubate the plates at 37° C. for 30–60 minutes. • 7. Set the FLEXStation to MP assay mode and to 37° C. • 8. Transfer the cell plate and compound plate to FLEXStation. • 9. Record baseline for 18 sec (Ex 530, Em560). • 10. Add the 5× compound solutions to the cells and read another 100 sec. • 11. Save and analyze data. Reagent List • 1. Assay buffer: Hank's Balanced Salt Solution (HBSS) with 20 mM Hepes, pH 7.4 • 2. MP dye: Molecular Devices Corporation, Cat#8034 (for FLIPR) • 3. Positive control: ATP 10–100 μM (a purinergic receptor agonist) Calcimycin (A23187) 5–10 μM (a calcium ionophore) • 4. Antagonist control: • i. […]

[2] = target: T1, βTRP (Homo sapiens, UniProt Q9NZQ8); assay: Membrane potential (MP) assay in βTRP-CHO cells, FLEXStation with Membrane Potential Dye; assay type: cell-based; conditions: for depolarization / MP response in βTRP-CHO cells: βTRP-CHO cell line (A2-18); for EC50: βTRP-CHO cells, membrane potential, read-out: estimated EC50 of depolarization
T1 construct: expressed in transfected cells; control line A1-5
T1 sequence (Q9NZQ8 1-1165): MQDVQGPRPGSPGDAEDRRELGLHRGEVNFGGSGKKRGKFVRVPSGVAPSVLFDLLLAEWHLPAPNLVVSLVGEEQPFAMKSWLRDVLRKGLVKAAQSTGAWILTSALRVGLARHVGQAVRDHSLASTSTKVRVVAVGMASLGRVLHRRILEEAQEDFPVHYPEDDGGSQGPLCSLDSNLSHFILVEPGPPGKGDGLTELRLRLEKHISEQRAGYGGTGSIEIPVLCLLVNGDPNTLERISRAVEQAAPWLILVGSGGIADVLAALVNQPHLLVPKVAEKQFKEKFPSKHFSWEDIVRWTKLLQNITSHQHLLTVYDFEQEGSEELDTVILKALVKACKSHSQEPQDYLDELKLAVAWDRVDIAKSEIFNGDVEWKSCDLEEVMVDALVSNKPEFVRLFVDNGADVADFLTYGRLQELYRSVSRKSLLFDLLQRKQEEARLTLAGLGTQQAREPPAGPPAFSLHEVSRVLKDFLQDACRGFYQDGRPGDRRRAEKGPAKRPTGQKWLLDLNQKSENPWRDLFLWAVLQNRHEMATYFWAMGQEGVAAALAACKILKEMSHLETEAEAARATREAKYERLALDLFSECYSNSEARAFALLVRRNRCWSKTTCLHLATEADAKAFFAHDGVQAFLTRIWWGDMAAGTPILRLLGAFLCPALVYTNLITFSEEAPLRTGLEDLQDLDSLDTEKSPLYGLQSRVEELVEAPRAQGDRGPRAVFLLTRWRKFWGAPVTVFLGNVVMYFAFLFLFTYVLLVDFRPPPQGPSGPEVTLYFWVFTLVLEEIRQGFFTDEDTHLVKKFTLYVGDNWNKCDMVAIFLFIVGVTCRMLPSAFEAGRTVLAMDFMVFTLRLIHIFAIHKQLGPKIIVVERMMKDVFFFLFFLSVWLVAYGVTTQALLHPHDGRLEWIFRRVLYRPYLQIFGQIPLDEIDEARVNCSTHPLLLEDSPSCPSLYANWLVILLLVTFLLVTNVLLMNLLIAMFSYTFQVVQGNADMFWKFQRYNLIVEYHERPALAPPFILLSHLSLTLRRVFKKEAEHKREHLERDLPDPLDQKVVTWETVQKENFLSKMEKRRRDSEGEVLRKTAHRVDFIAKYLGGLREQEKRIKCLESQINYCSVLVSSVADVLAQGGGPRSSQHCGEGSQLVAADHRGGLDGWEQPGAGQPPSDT
Method: as §1, §2
A CHO-K1 based stable cell line expressing βTRP (designated “Line A2-18” herein) is used for βTRP high throughput screening according to the follow protocol: • 1. Seed A2–18 βTrp-CHO cell and the control line (A1-5) to 96-well plates. • 2. Grow the cells for 24–48 h in DMEM medium to 85–95% confluency. • 3. Prepare following reagents immediately before the assay: • i. Assay buffer: dilute Component B of the FLIPR® assay kit and adjust pH to 7.4 with 1 N NaOH. No probenecid was needed. • ii. MP dye: suspend a vial of Component A of the FLIPR® assay kit with 10 ml of the assay buffer. • iii. Compound solutions: dilute DMSO stocks of the testing compounds to a 5× solution with the assay buffer. Raise Ca^2+ concentration in the compound solutions to 12.5 mM with 1 M CaCl2. • 4. Carefully remove the culture medium from all wells. • 5. Add 50 μl assay buffer and 50 μl MP dye. • 6. Incubate the plates at 37° C. for 30–60 minutes. • 7. Set the FLEXStation to MP assay mode and to 37° C. • 8. Transfer the cell plate and compound plate to FLEXStation. • 9. Record baseline for 18 sec (Ex 530, Em560). • 10. Add the 5× compound solutions to the cells and read another 100 sec. • 11. Save and analyze data. Reagent List • 1. Assay buffer: Hank's Balanced Salt Solution (HBSS) with 20 mM Hepes, pH 7.4 • 2. MP dye: Molecular Devices Corporation, Cat#8034 (for FLIPR) • 3. Positive control: ATP 10–100 μM (a purinergic receptor agonist) Calcimycin (A23187) 5–10 μM (a calcium ionophore) • 4. Antagonist control: • i. 2-APB 75 μM (from Tocris, TRP channel and IP3 receptor blocker); • ii. U73122 10 μM (from Sigma Chemicals, PLC inhibitor). Other Experimental Conditions • 1. The Cells: • iii. Maintenance: DMEM with 10% FCS and 200 μg/ml G418; Passaged 1–2 time/week with trypsin-EDTA. • iv. Confluency: 85–95% by the time of assay. • v. Plating: Regular or pre-coated plates; 24–48 h before assay. • vi. Passage: up to the 10th passage.

SMILES	depolarization / MP response in control cells [1]	depolarization / MP response in βTRP-CHO cells [2]	EC50 [2] [µM]	other results
CNc1ccc2oc(C[C@H]3O[C@@]4(CC[C@H]3C)O[C@H]([C@H](C)C(=O)c3ccc[nH]3)[C@H](C)C[C@H]4C)nc2c1C(=O)O [calcimycin, Calcimycin]	No effect	dose-dependently induced depolarization	~0.8	depolarization / MP response in βTRP-CHO cells ([2]; listed as A23187): induced a βTRP cell specific depolarization
NCCOB(c1ccccc1)c1ccccc1 [2-APB]	–	–	–	suppression of MP response to ATP ([2]; inhibitor added at the same time as ATP): over 50%; suppression of MP response to calcimycin ([2]; inhibitor added at the same time as calcimycin): over 50%
Nc1ncnc2c1ncn2[C@@H]1O[C@H](COP(=O)(O)OP(=O)(O)OP(=O)(O)O)[C@@H](O)[C@H]1O [ATP]	No effect	present only in βTRP cells; also recorded: dose-dependently induced depolarization	~11	–
COc1ccc2c(c1)CC[C@@H]1[C@@H]2CC[C@]2(C)[C@@H](NCCCCCCN3C(=O)C=CC3=O)CC[C@@H]12 [U73122]	–	–	–	effect on ATP-induced MP response after pre-incubation ([2]; 30 minute pre-incubation before ATP): inhibited
CCCCCCC[N+](CC)(CC)CCCCc1ccc(Cl)cc1 [Clofilium]	triggered depolarization	triggered depolarization	–	–
C=CC[C@H](C)[C@H](C)C[C@@H](O)[C@H](O)[C@@H]1CC[C@@]2(C)O[C@@]3(C)C[C@@]4(C)O[C@H]5/C=C\C[C@H]6O[C@H]7C[C@H]8O[C@H]9C[C@@]%10(C)O[C@@](C)([C@@H]%11CC[C@H]%12O[C@@]%13(C)C[C@H]%14O[C@@]%15(C)C[C@H]%16O[C@@]%17(C)C[C@@H](O)[C@H]([C@@H]%18O[C@H]%19[C@H](O)[C@@H](O)[C@H](C[C@H](O)C[C@@H](O)[C@@H]%20O[C@H]%21[C@H](O)[C@@H](O)[C@H]([C@@H]%22O[C@@H]%23[C@H](O)[C@H]%24O[C@H]%25C[C@H]%26O[C@@H](C[C@H](O)[C@@H](O)[C@H]%27O[C@H]%28[C@H](O)[C@H]%29O[C@H]%30C[C@H]%31O[C@H]%32[C@@H](O)[C@@H](O)[C@H]([C@H](C)[C@H](O)[C@H](C)CC[C@H](OS(=O)(=O)O)[C@H](O)[C@H](C)C[C@@H](O)C(=C)/C(C)=C/CO)O[C@@H]%32[C@H](O)C[C@]%31(C)O[C@@H]%30C[C@]%29(C)O[C@@H]%28C[C@H]%27O)[C@H](OS(=O)(=O)O)[C@H](O)[C@@H]%26O[C@@H]%25C[C@@H]%24O[C@H]%23[C@H](O)[C@H]%22O)O[C@H]%21C[C@H]%20O)O[C@H]%19C[C@H]%18O)O[C@@H]%17[C@H](O)[C@]%16(C)O[C@@H]%15CC[C@]%14(C)O[C@@H]%13C[C@@H]%12O%11)[C@H](O)C[C@@H]%10O[C@]9(C)CC[C@]8(C)O[C@]7(C)C[C@@H]6O[C@@H]5C[C@@H]4O[C@@H]3C[C@@H]2O1 [MTX, maitotoxin]	–	–	–	MP response at low Ca2+ ([2]; 1.26 mM Ca2+ in assay buffer): lack of action; [Ca2+]i or MP increase at raised Ca2+ ([2]; Ca2+ raised to 2.5–5 mM): significantly enhanced
